Data set [1] deals with Escherichia coli (ATCC 25922). In words: Minimum inhibitory concentration, visual turbidimetric method with OD600 of MIC tubes. In kind it is cell-based. The settings on record: ATCC25922, 4 h, E. coli, four hours incubation at 37° C., read-out: minimum inhibitory doxycycline concentration, MIC. As to the method: To determine the antibacterial activity of the doxycycline-loaded chitosan nanoparticles, minimum inhibitory concentrations (MICs) and minimum bactericidal concentrations (MBCs) were evaluated. The procedures for both assays were adopted from Lee et al. (Blanchet […]. Forward Selection of Explanatory Variables. Ecology. 2008; 89:2623-2632). MIC is the lowest concentration of DCNPs that inhibits bacterial growth. For the analyses, a visual turbidimetric method was used. Freshly prepared nanoparticles, blank and drug-loaded, were UV-sterilized for ten minutes. […] A 500 μL aliquot of this solution with sterilized particles was added to a tube containing Luria-Bertani (LB) broth for a total volume of 2 mL. A serial dilution, with a dilution factor of 0.3, was performed for the remaining six tubes. A parallel series of experiments was also run using unencapsulated doxycycline. Under sterile conditions, the tubes containing particles were inoculated with 1.0×10^5 colony-forming units (CFUs)/mL of Escherichia coli cells in LB broth, then incubated at 37° C. under agitation for four hours. Following the incubation, the tubes were assessed visually for the appearance of turbidity (i.e., bacterial growth). […] All MIC tubes were analyzed to assess the amount of bacteria present by measuring optical density of the suspension at 600 nm (OD600) and then calculating the number of bacterial cells present.

The subject of data set [2] is normal human ovarian surface epithelial (OSE) cells. In kind it is cell-based. The settings on record: 5 days. The procedure: Cytotoxicity of the DCNPs was determined by treating normal human ovarian surface epithelial (OSE) cells with different concentrations of doxycycline-loaded nanoparticles, then monitoring cell viability over the next five days. The OSE cells were cultured for 4 to 7 days in flasks containing medium199/MCDB105 media supplemented with 10% fetal bovine serum. The cells were removed from the flasks and counted, and then 100 μL of medium containing cells was added to the wells of a 96-well plate to give final cell concentrations of 5×10^2, 1.0×10^3, or 2.0×10^3 cells/mL. After 24 hours incubation at 37° C., the cells were treated with blank nanoparticles, DCNP4 (1 and 2 μg/mL), DCNP6 (1 and 2 μg/mL), or unencapsulated doxycycline (1 and 2 μg/mL). The plate was then incubated at 37° C. Bright microscopy was used to examine the cell morphology after treatment just before the assessing for cytotoxicity. Cytotoxicity was assessed on days 1, 3, and 5 by WST-1 assay. WST-1 assay reagent (10 μL) was added to each well, followed by incubation for another 4 hours at 37° C. and then spectrophotometric assessment of cell viability. […] This dye was quantified using a Biotex Synergy multiplate reader to measure absorbance at 450 nm (reference wavelength was 630 nm). All treatments were assayed in triplicate (n=3) and calculated according to equation 5: […]

Converted amounts (≈) assume the structure as drawn.

One compound from US9730679B1, “Device for sterile uterine sampling and drug delivery” (University of South Florida, priority 2012, dated 2017) can be followed below.

Consider `C[C@H]1c2cccc(O)c2C(=O)C2=C(O)[C@]3(O)C(=O)C(C(N)=O)=C(O)[C@@H](N(C)C)[C@@H]3[C@@H](O)[C@@H]21` [Doxy, Doxycycline], for which the MIC in data set [1] amounted to 13 µg/mL (≈ 29.3 µM). The “decrease in cell viability” value in data set [2] was 61%.
